Assay results as given in publication PMC11859040 (Pharmaceuticals, 2025).
Values after ≈ are worked out from the molar mass of the structure shown.

Tests used:
[1] = Cell viability in HQ-induced oxidative stress (MTT); format: cell-based, human; conditions: human, ARPE-19 cells; ARPE-19, 600 μM HQ alone
Method: (§1) […] Cells were rinsed once using an FBS-free medium to remove any residual CUR-SNEDDS. Afterward, the oxidative stress-provoking agent, HQ (Sigma-Aldrich), was added. The cells were exposed to 600 μM HQ for 2 h to achieve 60–70% viability, as determined in the control samples [44]. Cell viability was assessed using the MTT assay. Cells were assessed with microscopy before the viability test to confirm the correlation of the absorbance readings from the MTT assay.

cell proliferation = conditions: cited from earlier work
ARPE-19 cells [2] = assay: Indirect quantification of CUR uptake (CUR recovered in medium); format: cell-based, human
Method: ARPE-19 cells were seeded on acid-etched coverslips placed into a 6-well plate with a seeding density of 850,000 cells/well and incubated at 37 °C for 24 h. The cells were then incubated with media containing AC at the same concentration that was used for the cytotoxicity experiment. After 3 h of exposure to the AC and C formulations, the coverslips were removed, washed twice with PBS, and fixed with 4% paraformaldehyde (PFA) for 15 min. Subsequently, the PFA was removed, followed by two washes with PBS. […] Cell imaging was conducted using a ZEISS Axio Imager M2 fluorescent microscope (Carl Zeiss Microscopy Deutschland GmbH, Oberkochen, Germany). […] The experiments were conducted 24 h after seeding, using an FBS-free medium. The cells were rinsed once with a serum-free medium to remove the FBS residues and then exposed to 0.1–2 μM concentrations of SNEDD-CUR diluted in a medium. After a 3 h exposure period, the medium was removed and collected into another 96-well plate.

ARPE-19 cells [3] = assay: Cell viability in HQ-induced oxidative stress (MTT); format: cell-based, human; conditions: ARPE-19, 600 μM HQ
Method: as §1

HCE cells = assay: Cytocompatibility, MTT assay, HCE cells; format: cell-based, human; conditions: 5 μM CUR, 3 h, vs control
Method: HCE cells were cultured at 37 °C and 5% CO2 using a growth medium consisting of 1:1 DMEM/F12 (Gibco by Life Technologies Limited, Paisley, UK), 15% FBS (fetal bovine serum; Gibco by Life Technologies Limited, Paisley, UK), 100 U/mL penicillin, 0.1 mg/mL streptomycin (penicillin/streptomycin solution from EuroClone spa, Pero, Italy), 0.3 mg/mL L-glutamine (EuroClone spa, Pero, Italy), 10 ng/mL EGF (Recombinant Human Epidermal Growth Factor; Gibco by Life Technologies Corporation, Carlsbad, CA, USA), 5 μg/mL human recombinant insulin (Gibco by Life Technologies Corporation, Grand Island, NY, USA), and 0.5% sterile filtrated DMSO (Sigma-Aldrich, St. Louis, MO, USA), 0.1 μg/mL cholera toxin (Sigma-Aldrich, St. Louis, MO, USA). The fresh growth medium was changed for the cells every 2–3 days. When reaching a 75–80% confluence, the cells were either subcultured 1:5–1:30 or seeded for the experiment. Upon confluence, the cells were washed with 1xDPBS (Gibco by Life Technologies Limited, Paisley, UK) and detached with 0.05% trypsin–EDTA (Gibco by Life Technologies Limited, Paisley, UK). […] Cell viability was assessed using the 3-(4,5-dimethyl-thiazol-2-yl)-2,5-diphenyltetrazolium bromide (MTT) assay. Cells were assessed with microscopy before the viability test to confirm the correlation of the absorbance readings from the MTT assay.

[4] = Stability of CUR in PBS and in SNEDDS under storage conditions; format: physicochemical; conditions: PBS, 6 h
Method: HPLC analysis was performed on a reversed-phase C18 column (4.6 mm × 150 mm, 5 μm, ZORBAX Eclipse SB-C18) at 25 °C. The mobile phase was composed of water with 4% acetic acid and acetonitrile (44:56, v/v), filtered through a 0.22 μm Milli-pore filter and degassed prior to use. The flow rate was 0.850 mL/min, and the eluent was detected by a DAD detector at 430 nm.
The preparation of the sample AC followed the procedure described in Section 4.3. The sample was divided into four glass vials, with each set of vials being stored under different conditions, namely at 4 °C dark, 25 °C dark, 25 °C light, and 40 °C dark, to assess the typical storage conditions and investigate possible protection from degradation phenomena. Sample C was prepared differently. […] The mixture was then subjected to magnetic stirring at 350 rpm for 20 min. After stirring, the tube was centrifuged at 13,000 rpm for 20 min at 25 °C. The supernatant was collected and divided into four glass vials, each representing a different storage condition compared to the AC sample. […] HPLC analysis was employed to detect any variations in absorbance.

[5] = CUR solubility in different vehicles (oils and surfactants); format: physicochemical; conditions: for solubility at 24 h: 25 °C, thermodynamic from solid
Method: Different types of oils were selected based on biocompatibility and biodegradability: Mygliol® 812, Capryol® PGMC and Capryol® 90, Tegin® O, Isopropylmyristate (IPM), and Castor oil. Five surfactants, including Tween® 20, Tween® 80, Cremophor EL®, Solutol ®HS15, and Transcutol® P, were selected for the experiment in order to investigate the best materials for CUR-SNEDDS preparation. […] The mixtures were stirred (350 rpm) using a magnetic stirrer for 24 h. The samples were covered in order to prevent photo-degradation. […] The absorbance reading occurred at 422 nm.

ARPE-19 cells [6] = assay: Cytocompatibility, MTT assay, ARPE-19 cells; format: cell-based, human; conditions: 5 μM CUR, 3 h, vs control
Method: The ARPE-19 cell line obtained from the American Type Culture Collection (ATCC, Manassas, VA, USA) was used in the study. Cells were cultured in Dulbecco’s modified eagle medium/nutrition mix F-12 (1:1; Gibco, Paisley, UK) supplemented with 10% fetal bovine serum (FBS; Hyclone, Logan, UT, USA), 100 U/mL penicillin (Lonza, Walkersville, MD), and 2 mM L-glutamine (Lonza, Walkersville, MD, USA). The cells were grown at 37 °C in a humidified 5% CO2 atmosphere. The experiments were performed 24 h after seeding using an FBS-free medium. […] The cells were exposed for 3 h before the cell viability tests. Cell viability was assessed using the MTT assay. Cells were assessed with microscopy before the viability test to confirm the correlation of the absorbance readings from the MTT assay.

[7] = Solubility of CUR in water (inherent vs apparent with SNEDDS); format: physicochemical

Compound | viability at 2 h, 600 μM [1] [%] | IC50 (cell proliferation; anticancer agent and cell proliferation blocker) [µM] | Concentrations at which CUR acts as anticancer agent and cell proliferation blocker (cell proliferation) [µM] | CUR recovered in the medium (not internalized) (ARPE-19 cells [2]; ARPE-19, 3 h, listed as free CUR) [%] | CUR internalized (ARPE-19 cells [2]; ARPE-19, concentration not stated (discussion)) [%] | CUR internalized inside the cells (ARPE-19 cells [2]; ARPE-19, higher concentrations such as 1 μM and 2 μM, 3 h) [%] | Effect on cell viability compared to cells exposed to HQ (ARPE-19 cells [3]) | Reduction in cell viability (HCE cells) | CUR remaining / recovered ([4]; 4 °C) [%] | CUR remaining / recovered ([4]; 25 °C (r.t.) dark) | CUR remaining / recovered ([4]; 25 °C (r.t.) dark, listed as Native CUR) [%] | CUR remaining / recovered ([4]; 25 °C light) | CUR remaining / recovered ([4]; 40 °C dark) | solubility at 24 h ([5]; aqueous with cosolvent or surfactant or cyclodextrin, in Tween 80) [µg/mL] | solubility at 24 h ([5]; oil or lipid, in Capryol 90) [µg/mL] | solubility at 24 h ([5]; organic solvent or mixture, in Transcutol P) [µg/mL] | Solubility of CUR ([5]; in Capryol PGMC) [µg/mL] | Reduction in cell viability (ARPE-19 cells [6]) | solubility [7] [µg/mL]
Oc1ccc(O)cc1 [HQ, hydroquinone] | 70 |  |  |  |  |  |  |  |  |  |  |  |  |  |  |  |  |  | 
COc1cc(/C=C/C(=O)CC(=O)/C=C/c2ccc(O)c(OC)c2)ccc1O [CUR, Curcumin] |  | ~10 | 5 to 10 | 100 | 0 | 1 | no significant difference | not observed | 57 | less than 10% | 9 | completely degraded | completely degraded | 6800 (≈ 18.5 mM) | 8360 (≈ 22.7 mM) | 4610 (≈ 12.5 mM) | 8000 | not observed | < 1
